Experimental data from publication PMC9797021 (ACS applied bio materials, 2022).

How the values were obtained:
[1] = system: SARS-CoV-2 spike protein, S1 subunit; assay type: binding; conditions: pH 7.4
[2] = system: SARS-CoV-2 RBD; conditions: cited from earlier work

ACE2
SPR angle shift of ACE2/spike protein binding [1]: 0.147±0.009 degrees

residues 21–43 of the human ACE2 α 1-helix
affinity compared with full-length ACE2 binding to RBD [2]: comparable to that of the full-length ACE2 binding to RBD
